Assay results as given in PMC8968952, “Modulation of ERCC1-XPF Heterodimerization Inhibition via Structural Modification of Small Molecule Inhibitor Side-Chains” (Frontiers in Oncology, 2022).

Assays:
[1] = target: CYP2C19 (Homo sapiens, UniProt P33261); experiment: Cytochrome P450 inhibition, CYP2C19; assay type: in vitro ADME
Description: The ADME (absorption, distribution, metabolism, and excretion) profile of our lead compound 6 was determined by standard protocols carried out by WuXi AppTec (Shanghai) Co (https://www.wuxiapptec.com/). The following tests were conducted: distribution coefficient (log D at pH 7.4), aqueous solubility (Kinetic), metabolic stability in human liver microsomes and cryopreserved human hepatocytes, bidirectional permeability in Caco-2 cells, serum protein binding, and cytochrome P450 (CYP) inhibition (CYP1A2, CYP2C9, CYP2C19, CYP2D6, and CYP3A4-M).

[2] = system: ERCC1 or XPF levels in A549 cells; experiment: Western blot of ERCC1 and XPF protein levels (PLA control); assay type: cell-based, human; settings: 2 µM, 24 h
Description: page 1: Supplementary Material […] Supplementary Figure 1. ERCC1-XPF mediated cleavage of the stem-loop DNA substrate, in which the FAM signal is quenched, releases the fluorescently tagged octanucleotide. Triplicate measurements of the control (DMSO) and the effect of 10 μM of compounds 4 and 6 on the incision activity is shown. 2 PLA Control Experiments Supplementary Figure 2. A549 cells were seeded in 6-well culture dishes (Thermo Fishes Scientific) at a density of 0.3 X 10^6 cells/well in a final volume of 3 ml. […] The chambers were incubated for 24 h and then washed with PBS and the cells were solubilized with RIPA buffer in the presence of protease inhibitor cocktail (Cell Signaling Technology) plus 2 mM EDTA. […] EpiGentek), XPF (LS- C173159, 1:1000; LifeSpan BioSciences, Seattle, WA) and B-Actin (sc-47778, 1:1000; Santa Cruz) primary antibodies followed by secondary anti-mouse or anti-rabbit secondary HRP-conjugated secondary antibodies. ECL chemiluminescent substrate (Promega) was used to detect the proteins. 3 Cytotoxicity Analysis Supplementary Figure 3. Cytotoxicity assay using colony forming assay 4 HCT-116 Derived XPF Knockout Cells For CRISPR deletion of XPF from HCT-116 cells, the pSpCas9(BB)-2A-GFP (pX458) vector (Addgene plasmid # 48138) was used. The short guide sequence to target XPF exon one was: 5'- [NT] 3' and target XPF exon eight was: 5'- [NT]3'. […]

Chain of CYP2C19 (P33261 whole entry): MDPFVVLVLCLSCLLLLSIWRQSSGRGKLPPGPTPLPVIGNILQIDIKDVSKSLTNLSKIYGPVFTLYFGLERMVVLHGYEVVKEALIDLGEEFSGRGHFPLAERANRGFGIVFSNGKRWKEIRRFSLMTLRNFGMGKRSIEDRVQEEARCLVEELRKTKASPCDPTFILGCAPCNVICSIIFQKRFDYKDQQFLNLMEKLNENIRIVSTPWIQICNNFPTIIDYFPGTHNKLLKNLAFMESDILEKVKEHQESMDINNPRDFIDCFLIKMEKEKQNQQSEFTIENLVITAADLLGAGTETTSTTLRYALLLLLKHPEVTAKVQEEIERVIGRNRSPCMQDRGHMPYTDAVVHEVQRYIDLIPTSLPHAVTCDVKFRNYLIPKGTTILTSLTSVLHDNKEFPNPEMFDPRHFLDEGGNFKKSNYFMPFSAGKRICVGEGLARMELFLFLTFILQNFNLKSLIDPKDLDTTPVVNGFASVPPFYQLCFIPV

COc1ccc2nc3cc(Cl)ccc3c(Nc3ccc(O)c(CN4CCN(CCN(C(C)C)C(C)C)CC4)c3)c2c1 [Compound 6]
CYP2C19 inhibition grade (in words) [1]: weak inhibitor | IC50 [1]: 10.8 µM | levels of ERCC1 or XPF vs untreated cells [2]: no significant differences
